Source: patent publication US20250129095A1, “ANNULATED 2-AMINO-3-CYANO THIOPHENES AND DERIVATIVES FOR THE TREATMENT OF CANCER” (Boehringer Ingelheim Int'l GmbH Corp., priority 2021, published 2025)
≈ marks a conversion by molar mass, not a printed value. Read-outs that look alike come from different tables or passages of the source.

How the values were obtained:
[1] = Plasma protein binding assay (PPB), equilibrium dialysis; assay type: in vitro ADME; settings: bovine, 10% FCS in PBS, read-out: PPB 10% FCS (% fu)
Method: Binding of test compounds to plasma was determined using equilibrium dialysis (ED) and quantitative mass spectrometry interfaced with liquid chromatography (LC-MS). In brief, ED was performed with dialysis devices consisting of two chambers separated by a semipermeable membrane with a molecular weight cut-off of 5-10 kg/mol. One chamber was filled with 10% FCS in PBS containing 1-10 μmol/L test compound and the other chamber was filled with phosphate-buffer saline (PBS) with or without dextran. The dialysis chamber was incubated for 3-5 hours at 37° C. After incubation, protein was precipitated from aliquots of each chamber and the concentration of test compound in the supernatant of the plasma-containing compartment (cserum) and of the buffer-containing compartment (cbuffer) was determined by LC-MS. The fraction of unbound test compound (not bound to plasma) (fu) was calculated according to the following equation: […]

[2] = test system: AsPC-1 cells; assay: AsPC-1 CTG proliferation assay (120 h) (pancreatic cancer, G12D); assay type: cell-based; settings: Homo sapiens, ASPC1
Method: The CTG assay is designed to measure quantitatively the proliferation of AsPC-1 cells (ATCC CRL-5985), using the CellTiter Glow Assay Kit (Promega G7571). Cells are grown in RPMI medium (ATCC) supplemented with Fetal Calf Serum (Life Technologies, Gibco BRL, Cat. No. 10270-106). On “day 0” 2000 AsPC-1 cells are seeded in 60 μL RPMI ATCC+10% FCS+ Penstrep in a 384-well plate, flat and clear bottom (Greiner, PNr. 781091). Cells are then incubated in the plates at 37° C. in a CO2 incubator overnight. On day 1, compounds (10 mM stock in DMSO) are added with the ECHO acoustic liquid handler system (Beckman Coulter), including DMSO controls. Plates are incubated for 120 h, and cell viability is measured using CellTiter-Glo luminescent cell viability reagent (Promega product code G7570). Viability (stated as percent of control) is defined as relative luminescence units RLU of each well divided by the RLU of cells in DMSO controls.

[3] = target: KRAS G12C Ba/F3 (Homo sapiens, UniProt P01116, G12C, cells depend on it); assay: Ba/F3 proliferation assay, KRAS G12C; assay type: cell-based; settings: 72 h, AlamarBlue, read-out: KRAS G12C Ba/F3 IC50
Chain of KRAS G12C Ba/F3 (P01116 whole entry G12C, canonical isoform): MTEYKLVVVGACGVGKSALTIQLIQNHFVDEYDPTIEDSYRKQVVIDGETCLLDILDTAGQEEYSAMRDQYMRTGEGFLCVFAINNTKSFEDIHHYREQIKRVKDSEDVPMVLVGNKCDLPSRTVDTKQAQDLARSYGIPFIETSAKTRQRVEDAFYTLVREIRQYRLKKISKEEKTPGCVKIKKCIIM
Method: (§1) Plasmids containing KRASG12 mutants(i.e. G12D, G12C, G12V) are obtained from GeneScript. To generate KRASG12-dependent Ba/F3 models, Ba/F3 cells are transduced with retroviruses containing vectors that harbor KRASG12 isoforms. Platinum-E cells (Cell Biolabs) are used for retrovirus packaging. Retrovirus is added to Ba/F3 cells. To ensure infection, 4 μg/mL polybrene is added and cells are spinfected. […] Cells with an infection efficiency of 10% to 20% are further cultivated and puromycin selection with 1 μg/mL is initiated. As a control, parental Ba/F3 cells are used to show selection status. Selection is considered successful when parental Ba/F3 cells cultures died. To evaluate the transforming potential of KRASG12 mutations, the growth medium is no longer supplemented with IL-3. Ba/F3 cells harboring the empty vector are used as a control. Approximately ten days before conducting the experiments, puromycin is left out.
(§2) Compounds are added using an Access Labcyte Workstation with a Labcyte Echo 550 or 555 accoustic dispenser. All treatments are performed in technical duplicates. […] AlamarBlue™ (ThermoFisher), a viability stain, is added and fluorescence measured in the PerkinElmer Envision HTS Multilabel Reader. The raw data are imported into and analyzed with the Boehringer Ingelheim proprietary software MegaLab (curve fitting based on the program PRISM, GraphPad Inc.).

[4] = test system: SK-CO-1 cells; assay: SK-CO-1 CTG proliferation assay (120 h) (CRC, G12V); assay type: cell-based; settings: Homo sapiens
Method: (§3) SK-CO-1 cells (ATCC HTB-39) are dispensed into 384-well plates, flat and clear bottom (Greiner, PNr. 781091) at a density of 500 cells per well in 60 μL EMEM (Sigma M5650)+10% Fetal Calf Serum (HyClone, PNr.: SH30084.03) and incubated at 37° C. in a CO2 incubator overnight. The next day, compounds (10 mM stock in DMSO) are added with the ECHO acoustic liquid handler system (Beckman Coulter), including DMSO controls. Plates are incubated for 120 h, and cell viability is measured using CellTiter-Glo luminescent cell viability reagent (Promega product code G7570). Viability (stated as percent of control) is defined as relative luminescence units RLU of each well divided by the RLU of cells in DMSO controls.

[5] = Solubility measurement (DMSO solution precipitation method); assay type: physicochemical; settings: aqueous buffer, kinetic from dmso stock
Method: The DMSO solution is diluted with an aqueous medium (McIlvaine buffer with pH=4.5 or 6.8) to a final concentration of 250 μM. After 24 h of shaking at ambient temperature a potentially formed precipitate is removed by filtration. The concentration of the test compound in the filtrate is determined by LC-UV methods by calibrating the signal to the signal of a reference solution with complete dissolution of the test compound in acetonitrile/water (1:1) with known concentration.

[6] = target: KRAS G12V Ba/F3 (Homo sapiens, UniProt P01116, G12V, cells depend on it); assay: Ba/F3 proliferation assay, KRAS G12V; assay type: cell-based; settings: 72 h, AlamarBlue, read-out: KRAS G12V Ba/F3 IC50
Chain of KRAS G12V Ba/F3 (P01116 whole entry G12V): as the sequence (P01116 whole entry G12C, canonical isoform) above, with C12V counted along it
Method: as §1, §2

[7] = test system: SAS cells; assay: SAS CTG proliferation assay (120 h) (HNSCC, wt amplified); assay type: cell-based
Method: as §3, with “SAS” for “SK-CO-1”, “(JCRB0260)” for “(ATCC HTB-39)”, “300” for “500”, “DMEM:F12 (Gibco 31330-038)+10%” for “EMEM (Sigma M5650)+10%”, “overnight” for “overnight.”

[8] = target: KRAS G12D Ba/F3 (Homo sapiens, UniProt P01116, G12D, cells depend on it); assay: Ba/F3 proliferation assay, KRAS G12D; assay type: cell-based; settings: 72 h, AlamarBlue, read-out: KRAS G12D Ba/F3 IC50
Chain of KRAS G12D Ba/F3 (P01116 whole entry G12D): as the sequence (P01116 whole entry G12C, canonical isoform) above, with C12D counted along it
Method: as §1, §2

[9] = McIlvaine buffer pH 4.5, 24 h, read-out: Solubility [μg/ml] pH 4.5
[10] = McIlvaine buffer pH 6.8, 24 h, read-out: Solubility [μg/ml] pH 6.8

Row | SMILES | fraction unbound [1] | IC50 [2] [nM] | GI50 [3] [nM] | IC50 [4] [nM] | solubility at 24 h [5, 9] [µg/mL] | solubility at 24 h [5, 10] [µg/mL] | GI50 [6] [nM] | GI50 [8] [nM] | IC50 [7] [nM]
1 | C[C@H](Oc1cc(Oc2nccs2)nc(-c2onc3c2CCC[C@@]32CCCc3sc(N)c(C#N)c32)n1)[C@@H]1CCCN1C [Example I-1] | 0.25 | 2500 | 4 | 24 | 95 (≈ 161 µM) | < 1 | 3 | 11 | 19
2 | C[C@H](Oc1cc(Oc2cccnc2)nc(-c2onc3c2CCC[C@@]32CCCc3sc(N)c(C#N)c32)n1)[C@@H]1CCCN1C [Example I-2] | 0.31 | 1310 | 4 | 23 | > 125 | 89 (≈ 152 µM) | 2 | 6 | 15
3 | C[C@H](Oc1cc(Oc2cncnc2)nc(-c2onc3c2CCC[C@@]32CCCc3sc(N)c(C#N)c32)n1)[C@@H]1CCCN1C [Example I-3] | 0.57 | 682 | 4 | 29 | > 128 | > 121 | 2 | 5 | 14
4 | C[C@H](Oc1cc(N[C@H]2CCOC2)nc(-c2onc3c2CCC[C@@]32CCCc3sc(N)c(C#N)c32)n1)[C@@H]1CCCN1C [Example I-4] | 0.6 | 9470 | 83 | 762 | > 135 | 107 (≈ 186 µM) | 46 | 41 | 719
5 | COC[C@H](C)Nc1cc(O[C@@H](C)[C@@H]2CCCN2C)nc(-c2onc3c2CCC[C@@]32CCCc3sc(N)c(C#N)c32)n1 [Example I-5] | 0.45 | – | 71 | – | 111 (≈ 192 µM) | 109 (≈ 189 µM) | 67 | 122 | –
6 | C[C@H](Oc1cc(Nc2ccccn2)nc(-c2onc3c2CCC[C@@]32CCCc3sc(N)c(C#N)c32)n1)[C@@H]1CCCN1C [Example I-6] | 0.31 | 3360 | 58 | 273 | 23 (≈ 39.5 µM) | 2 (≈ 3.43 µM) | 14 | 47 | 81
7 | C[C@H](Oc1cc(Sc2ncccn2)nc(-c2onc3c2CCC[C@@]32CCCc3sc(N)c(C#N)c32)n1)[C@@H]1CCCN1C [Example I-7] | 0.61 | 10300 | 75 | 796 | > 146 | 70 (≈ 117 µM) | 31 | 97 | 221
8 | C[C@H](Oc1cc(OCC2(N(C)C)COC2)nc(-c2onc3c2CCC[C@@]32CCCc3sc(N)c(C#N)c32)n1)[C@@H]1CCCN1C [Example I-8] | 0.45 | 272 | 51 | 401 | > 143 | > 125 | 85 | 11 | 51

Second part, led by results:

Row | fraction unbound [1] | IC50 [2] [nM] | GI50 [3] [nM] | IC50 [4] [nM] | solubility at 24 h [5, 9] [µg/mL] | solubility at 24 h [5, 10] [µg/mL] | GI50 [6] [nM] | GI50 [8] [nM] | SMILES | IC50 [7] [nM]
9 | 0.59 | 1720 | 592 | 774 | > 145 | > 146 | 869 | 388 | C[C@H](Oc1cc(O[C@H]2CNC(C)(C)C2)nc(-c2noc3c2CCC[C@@]32CCCc3sc(N)c(C#N)c32)n1)[C@@H]1CCCN1C (single isomer, unassigned) [II-8] | 2600
10 | 0.19 | 699 | 4 | 18 | > 137 | > 124 | 4 | 6 | C[C@H](Oc1cc(Oc2cncnc2)nc(-c2noc3c2CCC[C@@]32CCCc3sc(N)c(C#N)c32)n1)[C@@H]1CCCN1C [II-1] | 20
11 | 0.52 | 49 | 133 | 171 | – | – | 161 | 5 | C[C@H](Oc1cc(O[C@@H]2CNC2(C)C)nc(-c2noc3c2CCC[C@@]32CCCc3sc(N)c(C#N)c32)n1)[C@@H]1CCCN1C [II-9] | 179
12 | 0.62 | 2270 | 14 | 46 | – | – | 29 | 28 | C[C@H](Oc1cc(NCC2COC2)nc(-c2noc3c2CCC[C@@]32CCCc3sc(N)c(C#N)c32)n1)[C@@H]1CCCN1C [II-11] | 21
13 | 0.5 | 3550 | 29 | 91 | – | – | 12 | 59 | C[C@H](Oc1cc(Nc2ccncn2)nc(-c2noc3c2CCC[C@@]32CCCc3sc(N)c(C#N)c32)n1)[C@@H]1CCCN1C [II-15] | 87
14 | 0.37 | – | 24 | – | 41 (≈ 70.4 µM) | < 1 | 11 | 43 | C[C@H](Oc1cc(Nc2ccccn2)nc(-c2noc3c2CCC[C@@]32CCCc3sc(N)c(C#N)c32)n1)[C@@H]1CCCN1C [II-16] | –
15 | 0.61 | 3010 | 37 | 133 | – | – | 11 | 46 | C[C@H](Oc1cc(Nc2cccnn2)nc(-c2noc3c2CCC[C@@]32CCCc3sc(N)c(C#N)c32)n1)[C@@H]1CCCN1C [II-18] | 171
16 | 0.52 | 430 | 79 | 139 | – | – | 65 | 22 | C[C@H](Oc1cc(O[C@@H]2CNC[C@@H]2F)nc(-c2noc3c2CCC[C@@]32CCCc3sc(N)c(C#N)c32)n1)[C@@H]1CCCN1C [II-29] | 1050
